In patent publication US12612407B2, “Imidazo[2,1-f][1,2,4]triazin-4-amine derivatives as TLR7 agonist” (BEIGENE, LTD., priority 2020, dated 2026) one finds EC50 data, which are given here for twelve compounds.

Common to all, as to type: cell-based
Assay [1] addresses T1, human TLR7 (Homo sapiens, UniProt Q9NYK1).
T1 construct: host or cells: HEK293 (HEK-Blue hTLR7)
T1 sequence (Q9NYK1 27-1049): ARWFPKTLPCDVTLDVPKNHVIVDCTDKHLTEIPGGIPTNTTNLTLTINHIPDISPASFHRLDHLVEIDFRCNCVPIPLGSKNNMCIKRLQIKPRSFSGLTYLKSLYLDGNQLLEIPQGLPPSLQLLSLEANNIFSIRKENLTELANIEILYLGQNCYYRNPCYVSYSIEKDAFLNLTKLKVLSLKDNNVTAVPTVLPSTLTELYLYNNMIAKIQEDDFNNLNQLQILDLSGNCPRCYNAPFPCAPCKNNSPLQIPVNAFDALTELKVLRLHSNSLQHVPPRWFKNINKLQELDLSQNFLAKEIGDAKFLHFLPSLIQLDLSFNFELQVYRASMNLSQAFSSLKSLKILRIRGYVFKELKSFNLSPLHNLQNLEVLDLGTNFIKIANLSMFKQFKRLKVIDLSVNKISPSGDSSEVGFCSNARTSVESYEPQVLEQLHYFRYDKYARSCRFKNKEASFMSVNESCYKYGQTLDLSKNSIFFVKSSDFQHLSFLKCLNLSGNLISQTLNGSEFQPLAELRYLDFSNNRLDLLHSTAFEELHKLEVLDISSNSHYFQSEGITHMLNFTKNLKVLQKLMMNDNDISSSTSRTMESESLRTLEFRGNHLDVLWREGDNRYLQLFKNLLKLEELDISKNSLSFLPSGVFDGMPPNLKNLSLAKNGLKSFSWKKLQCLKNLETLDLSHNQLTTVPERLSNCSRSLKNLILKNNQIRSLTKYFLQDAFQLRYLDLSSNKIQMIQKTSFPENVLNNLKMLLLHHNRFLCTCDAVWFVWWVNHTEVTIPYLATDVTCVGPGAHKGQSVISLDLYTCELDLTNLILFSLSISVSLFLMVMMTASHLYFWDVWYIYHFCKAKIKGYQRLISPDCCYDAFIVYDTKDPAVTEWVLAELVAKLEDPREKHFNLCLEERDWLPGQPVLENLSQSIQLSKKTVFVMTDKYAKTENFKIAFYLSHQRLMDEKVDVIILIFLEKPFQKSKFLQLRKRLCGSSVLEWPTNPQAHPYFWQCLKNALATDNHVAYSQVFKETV
As to the kind of experiment: HEK293-Blue hTLR7 Reporter Assay (QUANTI-BLUE, SEAP readout). The following applies: HEK-Blue-hTLR7 cells, 24 hrs treatment, Table 1, B1-B232. The procedure, abridged:
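HEK-Blue-hTLR7 cells expressing NF-κB/AP-1-driven SEAP, 4×10^4 cells/well, treated 24 h at 37° C with increasing compound concentrations. Supernatant SEAP measured with Quanti-blue substrate (10-30 min, 37° C) at 620-655 nm; EC50 from sigmoidal dose-response fit.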
(In general: A reporter such as luciferase makes a cellular process visible.)

In another assay the target is T2, human TLR 8 protein (Homo sapiens, UniProt Q9NR97).
T2 construct: expressed in transfected cells; host or cells: HEK293 (HEK-Blue hTLR8)
T2 sequence (Q9NR97 27-1041): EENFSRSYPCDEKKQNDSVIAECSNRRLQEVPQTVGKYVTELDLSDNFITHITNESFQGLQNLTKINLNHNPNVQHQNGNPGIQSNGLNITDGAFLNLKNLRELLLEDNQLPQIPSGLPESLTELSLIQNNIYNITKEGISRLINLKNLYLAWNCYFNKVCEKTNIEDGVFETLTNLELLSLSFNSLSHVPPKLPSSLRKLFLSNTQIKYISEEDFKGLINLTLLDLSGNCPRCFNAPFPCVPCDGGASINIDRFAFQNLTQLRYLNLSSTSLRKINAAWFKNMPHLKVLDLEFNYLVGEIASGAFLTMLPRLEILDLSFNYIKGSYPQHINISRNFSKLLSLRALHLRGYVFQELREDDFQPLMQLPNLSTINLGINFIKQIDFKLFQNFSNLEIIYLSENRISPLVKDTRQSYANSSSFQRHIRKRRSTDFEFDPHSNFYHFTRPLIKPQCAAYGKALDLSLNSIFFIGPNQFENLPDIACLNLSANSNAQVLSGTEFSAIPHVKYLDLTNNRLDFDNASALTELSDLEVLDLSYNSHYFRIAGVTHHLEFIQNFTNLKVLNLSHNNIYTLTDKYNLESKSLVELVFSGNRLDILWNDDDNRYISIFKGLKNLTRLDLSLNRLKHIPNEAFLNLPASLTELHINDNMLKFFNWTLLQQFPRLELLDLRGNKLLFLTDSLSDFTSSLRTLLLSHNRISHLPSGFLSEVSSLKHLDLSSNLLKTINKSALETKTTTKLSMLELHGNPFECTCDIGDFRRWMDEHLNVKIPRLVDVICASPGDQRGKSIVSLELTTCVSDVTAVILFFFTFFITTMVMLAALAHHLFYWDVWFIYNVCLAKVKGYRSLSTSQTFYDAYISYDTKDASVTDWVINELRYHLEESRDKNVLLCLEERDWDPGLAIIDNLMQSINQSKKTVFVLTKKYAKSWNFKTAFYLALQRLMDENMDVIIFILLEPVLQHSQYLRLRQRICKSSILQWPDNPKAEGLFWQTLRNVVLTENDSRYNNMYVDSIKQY
As to the kind of experiment: TLR8 Stimulation determined using HEK-Blue Detection. Particulars: HEK-Blue hTLR8 cells, 16 hr, percentages of maximum activation with Resiquimod or Motolimod, Table 3. The text has this:
TLR8 Stimulation determined using HEK-Blue Detection
(§1) This assay was designed for studying the stimulation of human TLR 8 protein in HEK-Blue hTLR8 tool cell line by monitoring the activation of NF-κB. HEK-Blue hTLR8 cells were obtained by co-transfection of the hTLR8 gene and an optimized secreted embryonic alkaline phosphatase (SEAP) reporter gene into HEK293 cells. The SEAP reporter gene was placed under the control of the IFN-β minimal promoter fused to five NF-κB and AP-1-binding sites. Stimulation with a TLR 8 ligand activates NF-κB and AP-1 which induce the expression of SEAP. Levels of SEAP can be easily determined with HEK-Blue Detection, a cell culture medium that allows for real-time detection of SEAP. HEK-Blue Detection contains all the nutrients necessary for cell growth and a specific SEAP color substrate. The hydrolysis of the substrate by SEAP produces a purple/blue color that can be measured with a spectrophotometer.
When growing to 50-80% confluency, HEK-Blue hTLR7/8 cells were plated into 96-well plate (costar 3599) at a density of 40000 cells/well. Then compounds were added with serial dilutions over 10 points with a 1 nM-10 uM final concentration range in 0.1% DMSO/HEK-Blue Detection. The plates were then incubated for 16 hr at 37° C. in 5% CO2. The optical density at 620-655 nm was read on BMG PHERAstar FSX instrument. The EC50 for each compound was determined by calculating the percentages of the maximum activation identified with Resiquimod or Motolimod.

Assay [2] has as its target T1, human TLR7. As to the kind of experiment: TLR7 Stimulation Determined Using HEK-Blue Detection. Particulars: HEK-Blue hTLR7 cells, 16 hr, percentages of maximum activation with Resiquimod, Table 1, B233-B247.
From the text: TLR7 Stimulation Determined Using HEK-Blue Detection
as §1, with “TLR7” for “TLR 8”, “hTLR7” for “hTLR8”
When growing to 50-80% confluency, HEK-Blue hTLR7 cells were plated into 96-well plate (costar 3599) at a density of 40000 cells/well. Then compounds were added with serial dilutions over 10 points with a 0.04 nM-10 μM final concentration range in 0.1% DMSO/HEK-Blue Detection. The plates were then incubated for 16 hr at 37° C. in 5% CO2 and vortex for 30 s before measurement. The optical density at 620-655 nm was read on BMG PHERAstar FSX instrument. The EC50 for each compound was determined by calculating the percentages of the maximum activation identified with Resiquimod.

The term EC50 denotes the midpoint of the concentration-response curve. Lower therefore signals greater potency. As for `CCC[C@H](C)Nc1nc(N)c2ncc(Cc3cnc(N4CCC(CN(C)C)CC4)c(C)c3)n2n1` (single isomer, unassigned) [Compound B147], the EC50 on human TLR7 [1] is 2.2 nM; at human TLR 8 protein, over 10000 nM.

For `CCC[C@H](C)Nc1nc(N)c2ncc(Cc3cnc(N4CCC(CNC)CC4)c(C)c3)n2n1` (single isomer, unassigned) [Compound B213], the EC50 at human TLR7 [1] was 2.6 nM; at human TLR 8 protein, over 10000 nM.

On to `CCCCOc1nc(N)c2ncc(Cc3ccc(C4CCNCC4)nc3F)n2n1` [Compound B21, 2-butoxy-7-((2-fluoro-6-(piperidin-4-yl)pyridin-3-yl)methyl)imidazo[2,1-f][1,2,4]triazin-4-amine], for which the EC50 at human TLR7 [1] turned out to be 115 nM; at human TLR 8 protein it was 250 nM.

As for `CCC[C@H](C)Oc1nc(N)c2ncc(Cc3cnc(N4CCNCC4)c(C)c3)n2n1` [Compound B118, (S)-7-((5-methyl-6-(piperazin-1-yl)pyridin-3-yl)methyl)-2-(pentan-2-yloxy)imidazo[2,1-f][1,2,4]triazin-4-amine], the EC50 at human TLR7 [1] amounted to 3.7 nM; at human TLR 8 protein, 197 nM.

In the case of `CCC[C@H](C)Oc1nc(N)c2ncc(Cc3cnc(N4CCC(N(C)C)CC4)c(C)c3)n2n1` [Compound B122, (S)-7-((6-(4-(dimethylamino)piperidin-1-yl)-5-methylpyridin-3-yl)methyl)-2-(pentan-2-yloxy)imidazo[2,1-f][1,2,4]triazin-4-amine], the EC50 at human TLR7 [1] turned out to be 2.6 nM; on human TLR 8 protein, 262 nM.

For the compound `CCC[C@H](C)Oc1nc(N)c2ncc(Cc3cnc(N4CCC(CN(C)C)CC4)c(C)c3)n2n1` [Compound B123, (S)-7-((6-(4-((dimethylamino)methyl)piperidin-1-yl)-5-methylpyridin-3-yl)methyl)-2-(pentan-2-yloxy)imidazo[2,1-f][1,2,4]triazin-4-amine], the EC50 at human TLR7 [1] worked out at 1.9 nM; at human TLR 8 protein, 310 nM.

As to `CCCC(CC)Oc1nc(N)c2ncc(Cc3cnc(N4CCNCC4)c(C)c3)n2n1` (centres unmarked) [Compound B140, 2-(hexan-3-yloxy)-7-((5-methyl-6-(piperazin-1-yl)pyridin-3-yl)methyl)imidazo[2,1-f][1,2,4]triazin-4-amine], the EC50 on human TLR7 [1] turned out to be 8.7 nM; on human TLR 8 protein it was 530 nM.

In the case of `CCCC(CCO)Oc1nc(N)c2ncc(Cc3cnc(N4CCNCC4)c(C)c3)n2n1` (centres unmarked) [Compound B165, 3-((4-amino-7-((5-methyl-6-(piperazin-1-yl)pyridin-3-yl)methyl)imidazo[2,1-f][1,2,4]triazin-2-yl)oxy)hexan-1-ol], the EC50 on human TLR7 [1] amounted to 7 nM; on human TLR 8 protein, 150 nM.

For `CCCC(CCC)Nc1nc(N)c2ncc(Cc3cnc(N4CCC(CN(C)C)CC4)c(C)c3)n2n1` [Compound B190, 7-((6-(4-((dimethylamino)methyl)piperidin-1-yl)-5-methylpyridin-3-yl)methyl)-N2-(heptan-4-yl)imidazo[2,1-f][1,2,4]triazine-2,4-diamine], the values for the EC50 on human TLR7 [1] and on human TLR 8 protein were 4.4 nM and over 10000 nM, respectively.

Take `CCCC(CCC)Nc1nc(N)c2ncc(Cc3cnc(N4CCN(C(=O)CN(C)C)CC4)c(C)c3)n2n1` [Compound B195, 1-(4-(5-((4-amino-2-(heptan-4-ylamino)imidazo[2,1-f] [1,2,4]triazin-7-yl)methyl)-3-methylpyridin-2-yl)piperazin-1-yl)-2-(dimethylamino)ethan-1-one]: the EC50 was 2.8 nM at human TLR7 [1] and over 10000 nM at human TLR 8 protein.

On to `CCC[C@H](C)Nc1nc(N)c2ncc(Cc3cnc(N4CCN(C(=O)CN(C)C)CC4)c(C)c3)n2n1` [Compound B219, (S)-1-(4-(5-((4-amino-2-(pentan-2-ylamino)imidazo[2,1-f][1,2,4]triazin-7-yl)methyl)-3-methylpyridin-2-yl)piperazin-1-yl)-2-(dimethylamino)ethan-1-one], for which the EC50 at human TLR7 [1] is 2.4 nM; at human TLR 8 protein, over 10000 nM.

`CCCC(C)Oc1nc(N)c2ncc(Cc3cnc(N4CCC(CNCCOC)CC4)c(C)c3)n2n1` (centres unmarked) [Compound B237, 7-((6-(4-(((2-methoxyethyl)amino)methyl)piperidin-1-yl)-5-methylpyridin-3-yl)methyl)-2-(pentan-2-yloxy)imidazo[2,1-f][1,2,4]triazin-4-amine]: the EC50 on human TLR7 [2] is 8.5 nM. This counts as single-digit nanomolar.
